In patent US20230279025A1, “KRAS G12D INHIBITORS” (Mirati Therapeutics, Inc., priority 2020, published 2023) one finds IC50 data, which are given here for ten compounds.

The target in the assay is KRas G12D (Homo sapiens (Human), UniProt P01116, G12D). Nature of the assay: KRas G12D Binding Assay (TR-FRET displacement of Cy5 labelled tracer). The following applies: GDP-loaded KRAS G12D (amino acids 1:169), 60 minute incubation at 22° C. The procedure:
After a 60 minute incubation at 22° C., the reaction was measured using a PerkinElmer EnVision multimode plate reader via TR-FRET dual wavelength detection, and the percent of control (POC) calculated using a ratiometric emission factor. […] The POC values were fit to a 4-parameter logistic curve and the IC50 value was determined as the concentration where the curve crosses 50 POC.
ND stands for “not determined.”
(In general: TR-FRET usually uses a lanthanide donor and a delayed reading to cut background.)

Sequence of KRas G12D (P01116 other isoform, or with tags, fused parts or gaps G12D): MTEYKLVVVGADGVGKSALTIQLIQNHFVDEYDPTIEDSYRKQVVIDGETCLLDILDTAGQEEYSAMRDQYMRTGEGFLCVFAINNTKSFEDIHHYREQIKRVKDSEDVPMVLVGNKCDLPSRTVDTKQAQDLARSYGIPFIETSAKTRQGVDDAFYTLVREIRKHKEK

Consider `OCc1nccn1CCOc1nc(N2CC3CCC(C2)N3)c2cnc(-c3cccc4cccc(Cl)c34)c(F)c2n1` [Example 171, (1-(2-((4-(3,8-diazabicyclo[3.2.1]octan-3-yl)-7-(8-chloronaphthalen-1-yl)-8-fluoropyrido[4,3-d]pyrimidin-2-yl)oxy)ethyl)-1H-imidazol-2-yl)methanol], for which the half-inhibitory concentration (IC50) turned out to be 757 nM.
Turning to `C#Cc1cccc2cccc(-c3ncc4c(N5C[C@H]6CC[C@@H](C5)N6)nc(OC[C@@H]5CCCN5C)nc4c3F)c12` [Example 206, 4-((1R,5S)-3,8-diazabicyclo[3.2.1]octan-3-yl)-7-(8-ethynylnaphthalen-1-yl)-8-fluoro-2-(((S)-1-methylpyrrolidin-2-yl)methoxy)pyrido[4,3-d]pyrimidine], the IC50 is 5.1 nM.
As for `COc1nc(N2C[C@H]3CC[C@@H](C2)N3)c2cnc(-c3cc(O)cc4cccc(Cl)c34)c(F)c2n1` [Example 360, 4-(4-((1R,5S)-3,8-diazabicyclo[3.2.1]octan-3-yl)-8-fluoro-2-methoxypyrido[4,3-d]pyrimidin-7-yl)-5-chloronaphthalen-2-ol], the figure is 50.8 nM.
Take `C#Cc1cccc2cncc(-c3ncc4c(N5C[C@H]6CC[C@@H](C5)N6)nc(OC[C@]56CCCN5C[C@@H](F)C6)nc4c3F)c12` [Example 204, 4-((1R,5S)-3,8-diazabicyclo[3.2.1]octan-3-yl)-7-(5-ethynylisoquinolin-4-yl)-8-fluoro-2-(((2S,7aR)-2-fluorotetrahydro-1H-pyrrolizin-7a(5H)-yl)methoxy)pyrido[4,3-d]pyrimidine]: the 50% inhibitory concentration (IC50) is 4.4 nM.
`Cc1cc2[nH]ncc2c(-c2ncc3c(N4C[C@H]5CC[C@@H](C4)N5)nc(OCC45CCCN4CCC5)nc3c2F)c1C` [Example 249, 4-((1R,5S)-3,8-diazabicyclo[3.2.1]octan-3-yl)-7-(5,6-dimethyl-1H-indazol-4-yl)-8-fluoro-2-((hexahydro-1H-pyrrolizin-7a-yl)methoxy)pyrido[4,3-d]pyrimidine] came in with a half-inhibitory concentration (IC50) of 3.5 nM.
Then `CCc1cccc2cc(O)cc(-c3ncc4c(N5C[C@H]6CC[C@@H](C5)N6)nc(OC[C@@]56CCCN5C[C@H](F)C6)nc4c3F)c12` [Example 259, 4-(4-((1R,5S)-3,8-diazabicyclo[3.2.1]octan-3-yl)-8-fluoro-2-(((2R,7aS)-2-fluorotetrahydro-1H-pyrrolizin-7a(5H)-yl)methoxy)pyrido[4,3-d]pyrimidin-7-yl)-5-ethylnaphthalen-2-ol], with 0.8 nM; and `CN1CCC[C@H]1COc1nc(N2CC3C[C@@H](O)C(C2)N3)c2cnc(-c3cc(O)cc4ccccc34)c(F)c2n1` (stereo partly drawn) [Example 31, 3-(8-fluoro-7-(3-hydroxynaphthalen-1-yl)-2-(((S)-1-methylpyrrolidin-2-yl)methoxy)pyrido[4,3-d]pyrimidin-4-yl)-3,8-diazabicyclo[3.2.1]octan-6-ol], with 1.6 nM; and `C#Cc1cccc2cc(O)cc(-c3ncc4c(N5C[C@H]6CC[C@@H](C5)N6)nc(OCC56CCCN5CCC6)nc4c3F)c12` [Example 185, 4-(4-((1R,5S)-3,8-diazabicyclo[3.2.1]octan-3-yl)-8-fluoro-2-((hexahydro-1H-pyrrolizin-7a-yl)methoxy)pyrido[4,3-d]pyrimidin-7-yl)-5-ethynylnaphthalen-2-ol], with 0.3 nM.
Then `C[C@H](N)COc1nc(N2CC3CCC(C2)N3)c2cnc(-c3cccc4cccc(Cl)c34)c(F)c2n1` [Example 374, (S)-1-((4-((1R,5S)-3,8-diazabicyclo[3.2.1]octan-3-yl)-7-(8-chloronaphthalen-1-yl)-8-fluoropyrido[4,3-d]pyrimidin-2-yl)oxy)propan-2-amine bis(2,2,2-trifluoroacetate)], with 348 nM.
`COc1ccccc1-c1ncc2c(N3C[C@H]4CC[C@@H](C3)N4)nc(OCC34CCCN3CCC4)nc2c1F` [Example 273, 4-((1R,5S)-3,8-diazabicyclo[3.2.1]octan-3-yl)-8-fluoro-2-((hexahydro-1H-pyrrolizin-7a-yl)methoxy)-7-(2-methoxyphenyl)pyrido[4,3-d]pyrimidine] gave an IC50 of 1340 nM.

A word on the IC50: it is the concentration that inhibits the measured activity by half.
